Assay results: patent US9416128B2, “Fused heterocyclic compounds as ion channel modulators” (Gilead Sciences, Inc., priority 2013, dated 2016)

Columns and labels:
[1] = target: wild-type human cardiac sodium channel, hNaV 1.5 (Late INa) (Homo sapiens, UniProt Q14524); assay: Late INa screening assay (whole cell patch clamp, QPatch, Tefluthrin-induced late current); format: cell-based; settings: HEK293, % inhibition (percent block of late INa) at 1 uM; HEK293 hNaV1.5; 10 μM Tefluthrin; read-out: Nav1.5 Late INa 1 uM
wild-type human cardiac sodium channel, hNaV 1.5 (Late INa), sequence (Q14524 whole entry): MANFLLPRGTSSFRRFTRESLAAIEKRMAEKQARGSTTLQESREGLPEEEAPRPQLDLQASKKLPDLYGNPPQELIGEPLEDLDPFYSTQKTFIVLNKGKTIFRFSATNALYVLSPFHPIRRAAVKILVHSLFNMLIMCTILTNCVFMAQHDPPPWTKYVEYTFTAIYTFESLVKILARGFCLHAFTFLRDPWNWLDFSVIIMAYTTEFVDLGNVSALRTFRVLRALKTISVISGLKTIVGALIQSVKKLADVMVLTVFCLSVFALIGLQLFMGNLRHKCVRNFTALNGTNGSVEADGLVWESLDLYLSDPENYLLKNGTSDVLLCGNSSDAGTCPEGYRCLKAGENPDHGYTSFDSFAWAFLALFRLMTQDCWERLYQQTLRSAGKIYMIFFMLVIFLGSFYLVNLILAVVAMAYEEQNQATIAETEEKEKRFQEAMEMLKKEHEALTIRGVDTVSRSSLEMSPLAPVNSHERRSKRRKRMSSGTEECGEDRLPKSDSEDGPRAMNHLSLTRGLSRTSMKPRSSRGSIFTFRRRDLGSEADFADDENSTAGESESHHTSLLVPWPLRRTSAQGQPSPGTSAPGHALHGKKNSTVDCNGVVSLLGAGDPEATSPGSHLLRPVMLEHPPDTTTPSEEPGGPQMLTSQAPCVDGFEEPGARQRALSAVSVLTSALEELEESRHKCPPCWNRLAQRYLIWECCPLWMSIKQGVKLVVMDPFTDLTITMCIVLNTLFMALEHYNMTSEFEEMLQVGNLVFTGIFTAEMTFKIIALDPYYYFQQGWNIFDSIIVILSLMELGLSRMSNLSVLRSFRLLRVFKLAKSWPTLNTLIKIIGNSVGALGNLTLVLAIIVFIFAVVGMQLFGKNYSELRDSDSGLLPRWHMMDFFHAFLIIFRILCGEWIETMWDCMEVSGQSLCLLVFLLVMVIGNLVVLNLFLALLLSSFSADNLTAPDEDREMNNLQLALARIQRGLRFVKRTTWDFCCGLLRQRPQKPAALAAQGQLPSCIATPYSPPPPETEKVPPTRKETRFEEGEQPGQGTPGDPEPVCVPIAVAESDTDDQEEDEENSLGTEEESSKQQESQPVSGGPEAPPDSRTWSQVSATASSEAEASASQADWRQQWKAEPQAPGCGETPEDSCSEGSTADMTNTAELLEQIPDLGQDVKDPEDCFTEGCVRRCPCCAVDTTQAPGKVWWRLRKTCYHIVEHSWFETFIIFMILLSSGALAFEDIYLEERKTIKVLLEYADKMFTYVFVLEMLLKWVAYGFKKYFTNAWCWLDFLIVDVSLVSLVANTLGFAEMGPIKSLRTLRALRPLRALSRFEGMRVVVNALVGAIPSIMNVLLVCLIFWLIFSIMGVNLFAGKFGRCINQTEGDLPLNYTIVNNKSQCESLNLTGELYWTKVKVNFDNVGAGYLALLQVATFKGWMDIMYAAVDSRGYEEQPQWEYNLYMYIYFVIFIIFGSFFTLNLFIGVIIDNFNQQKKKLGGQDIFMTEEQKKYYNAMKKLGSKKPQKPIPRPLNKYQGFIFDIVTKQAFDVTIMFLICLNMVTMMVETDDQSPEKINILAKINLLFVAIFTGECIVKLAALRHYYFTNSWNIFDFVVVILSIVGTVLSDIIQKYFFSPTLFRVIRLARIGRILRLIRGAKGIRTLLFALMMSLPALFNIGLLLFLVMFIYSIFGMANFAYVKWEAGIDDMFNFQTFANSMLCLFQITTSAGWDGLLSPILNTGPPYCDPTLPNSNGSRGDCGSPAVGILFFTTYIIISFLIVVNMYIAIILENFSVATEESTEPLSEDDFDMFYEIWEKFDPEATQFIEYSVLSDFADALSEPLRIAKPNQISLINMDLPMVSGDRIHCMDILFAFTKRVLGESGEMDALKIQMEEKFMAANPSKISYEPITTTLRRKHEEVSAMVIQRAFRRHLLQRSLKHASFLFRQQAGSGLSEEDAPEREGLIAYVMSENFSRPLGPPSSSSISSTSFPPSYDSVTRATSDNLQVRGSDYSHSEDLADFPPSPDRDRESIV
Summary of the method: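 HEK293 cells stably expressing hNaV1.5 without beta subunits, whole-cell patch clamp at 23-25° C; late current induced by 10 μM Tefluthrin, measured 240-265 ms into 250 ms steps to −20 mV from −120 mV at 0.1 Hz. Compounds typically 0.3 or 1 μM, three additions over 5 min; percent block normalized to 0Na baseline with rundown correction.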

[2] = target: T1, hNaV1.2 (SCN2A) (Homo sapiens, UniProt Q99250); assay: Use-dependent inhibition of the CNS NaV1.2 sodium channel; format: cell-based; settings: HEK-293, % inhibition, 25 Hz
T1 construct: expressed in transfected cells
T1 sequence (Q99250 whole entry): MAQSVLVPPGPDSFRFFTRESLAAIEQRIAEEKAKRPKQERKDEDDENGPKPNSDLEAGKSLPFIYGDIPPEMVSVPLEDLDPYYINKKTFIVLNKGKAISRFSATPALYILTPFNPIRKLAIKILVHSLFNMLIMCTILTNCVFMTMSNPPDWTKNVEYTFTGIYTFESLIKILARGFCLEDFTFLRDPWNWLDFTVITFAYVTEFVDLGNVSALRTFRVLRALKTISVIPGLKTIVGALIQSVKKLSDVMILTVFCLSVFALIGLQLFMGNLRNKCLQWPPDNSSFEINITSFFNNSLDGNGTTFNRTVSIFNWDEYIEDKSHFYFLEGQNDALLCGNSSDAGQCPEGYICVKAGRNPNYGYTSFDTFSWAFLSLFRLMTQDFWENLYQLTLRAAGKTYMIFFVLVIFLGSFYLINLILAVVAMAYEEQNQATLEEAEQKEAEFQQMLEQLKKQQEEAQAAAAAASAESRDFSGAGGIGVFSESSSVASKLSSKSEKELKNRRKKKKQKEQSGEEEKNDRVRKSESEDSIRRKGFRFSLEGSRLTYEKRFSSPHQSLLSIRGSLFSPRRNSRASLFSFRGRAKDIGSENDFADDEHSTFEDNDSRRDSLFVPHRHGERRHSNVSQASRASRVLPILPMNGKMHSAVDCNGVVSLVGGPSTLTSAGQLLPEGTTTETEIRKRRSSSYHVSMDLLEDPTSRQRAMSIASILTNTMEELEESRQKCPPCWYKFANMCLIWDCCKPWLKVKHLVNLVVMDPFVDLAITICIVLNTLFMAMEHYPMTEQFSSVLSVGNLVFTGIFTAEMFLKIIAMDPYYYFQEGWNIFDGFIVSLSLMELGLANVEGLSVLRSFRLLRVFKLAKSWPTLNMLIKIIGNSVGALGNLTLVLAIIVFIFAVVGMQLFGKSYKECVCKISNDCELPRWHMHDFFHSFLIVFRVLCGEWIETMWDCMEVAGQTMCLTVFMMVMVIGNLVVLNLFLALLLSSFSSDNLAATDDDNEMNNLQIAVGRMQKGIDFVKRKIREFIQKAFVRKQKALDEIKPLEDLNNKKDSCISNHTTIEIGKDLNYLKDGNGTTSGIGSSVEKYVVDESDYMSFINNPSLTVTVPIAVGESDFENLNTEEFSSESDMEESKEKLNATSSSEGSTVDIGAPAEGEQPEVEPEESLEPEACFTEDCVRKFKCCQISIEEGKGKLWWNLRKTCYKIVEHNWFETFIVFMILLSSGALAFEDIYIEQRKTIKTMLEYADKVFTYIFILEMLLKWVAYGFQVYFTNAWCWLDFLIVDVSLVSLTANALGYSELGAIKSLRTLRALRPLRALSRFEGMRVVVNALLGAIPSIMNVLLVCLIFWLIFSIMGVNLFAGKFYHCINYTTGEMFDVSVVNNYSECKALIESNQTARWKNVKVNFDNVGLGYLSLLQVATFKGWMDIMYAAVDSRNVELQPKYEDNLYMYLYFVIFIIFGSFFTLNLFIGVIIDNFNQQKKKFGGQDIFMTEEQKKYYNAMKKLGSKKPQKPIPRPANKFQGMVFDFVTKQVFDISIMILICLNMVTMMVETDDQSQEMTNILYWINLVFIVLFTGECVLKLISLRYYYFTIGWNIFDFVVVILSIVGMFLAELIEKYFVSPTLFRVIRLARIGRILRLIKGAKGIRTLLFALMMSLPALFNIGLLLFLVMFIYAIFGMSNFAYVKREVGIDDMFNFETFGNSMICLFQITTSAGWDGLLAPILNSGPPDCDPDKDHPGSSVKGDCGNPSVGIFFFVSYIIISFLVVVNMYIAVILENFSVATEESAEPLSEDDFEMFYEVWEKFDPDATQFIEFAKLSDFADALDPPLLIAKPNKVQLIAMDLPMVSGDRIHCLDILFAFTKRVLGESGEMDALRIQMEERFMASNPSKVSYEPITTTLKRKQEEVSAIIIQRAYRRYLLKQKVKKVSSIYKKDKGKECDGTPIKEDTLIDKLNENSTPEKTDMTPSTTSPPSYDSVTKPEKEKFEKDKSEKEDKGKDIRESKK
T1 sequence (Q07699 19-218 partner): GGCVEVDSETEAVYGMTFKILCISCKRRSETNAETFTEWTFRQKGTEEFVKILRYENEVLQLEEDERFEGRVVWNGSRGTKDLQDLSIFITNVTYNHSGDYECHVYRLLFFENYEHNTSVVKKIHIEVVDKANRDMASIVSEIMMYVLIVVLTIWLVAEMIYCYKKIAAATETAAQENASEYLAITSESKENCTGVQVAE
T1 sequence (O60939 30-215 partner): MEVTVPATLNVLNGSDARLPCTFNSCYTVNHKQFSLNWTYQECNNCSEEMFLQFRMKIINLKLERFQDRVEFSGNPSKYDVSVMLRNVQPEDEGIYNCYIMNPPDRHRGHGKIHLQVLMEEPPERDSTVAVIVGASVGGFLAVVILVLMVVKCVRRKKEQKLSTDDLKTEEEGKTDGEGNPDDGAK
Summary of the method: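 Use-dependent block of human NaV1.2 was recorded by automated whole-cell patch clamp (QPatch) in HEK-293 cells stably expressing hNaV1.2 with beta1 and beta2 subunits. From a −120 mV holding potential, a 25 Hz train of twenty 20 ms pulses to 0 mV was applied. Peak current at pulse 20, normalized to pulse 1, gave percent inhibition versus compound-free conditions at 23-25° C.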

Cc1csc(CN2Cc3cc(-c4ccc(Cl)c(F)c4)ccc3OC2=O)n1 [Example 59, 6-(4-chloro-3-fluorophenyl)-3-((4-methylthiazol-2-yl)methyl)-3,4-dihydro-2H-benzo[e][1,3]oxazin-2-one]
inhibition at 1 µM [1]: 50.3%
inhibition at 1 µM ([2]; use-dependent block at 1 uM, read-out: Nav1.2 UDB 25 Hz 1 uM): < 5%
inhibition at 10 µM ([2]; use-dependent block at 10 uM, read-out: Nav1.2 UDB 25 Hz 10 uM): 41.2%
